Experimental data taken from PubChem BioAssay (NCI).
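Protocol summary: plate cells (96-well), add compound at 5 concentrations, incubate 48 h, interpolate endpoints linearly. TGI denotes the concentration required for complete inhibition of growth.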

Legend:
Assay in all cases: NCI-60 cell line screen, 48 h
DU-145 prostate = tested on: DU-145 prostate
BT-549 breast = tested on: BT-549 breast
UACC-62 melanoma = tested on: UACC-62 melanoma
SNB-19 CNS = tested on: SNB-19 CNS
UACC-257 melanoma = tested on: UACC-257 melanoma
OVCAR-5 ovarian = tested on: OVCAR-5 ovarian
LOX IMVI melanoma = tested on: LOX IMVI melanoma
NCI-H226 lung = tested on: NCI-H226 lung
HS 578T breast = tested on: HS 578T breast
SNB-75 CNS = tested on: SNB-75 CNS
OVCAR-3 ovarian = tested on: OVCAR-3 ovarian
MDA-MB-435 = tested on: MDA-MB-435

`CCOC(=O)CCC(NC(=O)c1ccc(Nc2nc3cc(C(F)(F)F)ccc3nc2-c2ccccc2)cc1)C(=O)OCC` (configuration not stated) showed a TGI (DU-145 prostate) greater than 100 µM, a TGI (BT-549 breast) greater than 100 µM and a TGI (UACC-62 melanoma) greater than 100 µM. The TGI (SNB-19 CNS) was greater than 100 µM, the TGI (UACC-257 melanoma) was greater than 100 µM and the TGI (OVCAR-5 ovarian) was greater than 100 µM. For the same compound, the TGI (LOX IMVI melanoma) was greater than 100 µM, the TGI (NCI-H226 lung) was greater than 100 µM and the TGI (HS 578T breast) was greater than 100 µM. The TGI (SNB-75 CNS) was greater than 100 µM, the TGI (OVCAR-3 ovarian) was greater than 100 µM and the TGI (MDA-MB-435) was greater than 100 µM.
`Cc1sc2nc3n(c(=O)c2c1C)N=C(c1ccc(Cl)cc1)CS3` showed a TGI (DU-145 prostate) greater than 100 µM, a TGI (BT-549 breast) greater than 100 µM and a TGI (UACC-62 melanoma) greater than 100 µM. It also gave a TGI (UACC-257 melanoma) greater than 100 µM, a TGI (OVCAR-5 ovarian) greater than 100 µM and a TGI (LOX IMVI melanoma) greater than 100 µM. The TGI (NCI-H226 lung) was greater than 100 µM, the TGI (HS 578T breast) was greater than 100 µM and the TGI (SNB-75 CNS) was greater than 100 µM. For the same compound, the TGI (OVCAR-3 ovarian) was greater than 100 µM and the TGI (MDA-MB-435) was greater than 100 µM.
With `COC(=O)[C@H](Cc1ccccc1)NC(=O)N1CCN(C(=O)N[C@@H](Cc2ccccc2)C(=O)OC)CCN(C(=O)N[C@@H](Cc2ccccc2)C(=O)OC)CC1` the TGI (DU-145 prostate) was greater than 100 µM, the TGI (BT-549 breast) was greater than 100 µM and the TGI (UACC-62 melanoma) was greater than 100 µM. It also gave a TGI (SNB-19 CNS) greater than 100 µM, a TGI (UACC-257 melanoma) greater than 100 µM and a TGI (OVCAR-5 ovarian) greater than 100 µM. For the same compound, the TGI (LOX IMVI melanoma) was greater than 100 µM, the TGI (NCI-H226 lung) was greater than 100 µM and the TGI (HS 578T breast) was greater than 100 µM. It also gave a TGI (SNB-75 CNS) greater than 100 µM, a TGI (OVCAR-3 ovarian) greater than 100 µM and a TGI (MDA-MB-435) greater than 100 µM.
`C/C=C(/C)C(=O)O[C@H]1C(C)=C[C@]23C(=O)[C@@H](C=C(COC(C)=O)[C@@H](O)[C@]12O)[C@H]1[C@@H](C[C@H]3C)[C@@]1(C)OC(=O)/C(C)=C\C` showed a TGI (DU-145 prostate) of 6.21 µM, a TGI (BT-549 breast) of 5.73 µM and a TGI (UACC-62 melanoma) of 5.69 µM. For the same compound, the TGI (SNB-19 CNS) was 5.92 µM, the TGI (UACC-257 melanoma) was 10.4 µM and the TGI (OVCAR-5 ovarian) was 6.48 µM. It also gave a TGI (LOX IMVI melanoma) of 9.65 µM, a TGI (NCI-H226 lung) of 7.52 µM and a TGI (HS 578T breast) of 5.28 µM. The TGI (SNB-75 CNS) was 4.53 µM, the TGI (OVCAR-3 ovarian) was 5.99 µM and the TGI (MDA-MB-435) was 6.6 µM.
Compound `COC12C=CC(CC1)C1C(=O)c3c(C)c(C)n(C)c3C(=O)C12` (configuration not stated) has a TGI (DU-145 prostate) greater than 100 µM, a TGI (BT-549 breast) greater than 100 µM and a TGI (UACC-62 melanoma) greater than 100 µM. The TGI (SNB-19 CNS) was greater than 100 µM, the TGI (UACC-257 melanoma) was greater than 100 µM and the TGI (OVCAR-5 ovarian) was greater than 100 µM. For the same compound, the TGI (LOX IMVI melanoma) was greater than 100 µM, the TGI (NCI-H226 lung) was greater than 100 µM and the TGI (HS 578T breast) was greater than 100 µM. It also gave a TGI (SNB-75 CNS) greater than 100 µM, a TGI (OVCAR-3 ovarian) greater than 100 µM and a TGI (MDA-MB-435) greater than 100 µM.
`C=C1C(=O)C23CC1C[C@H](OC(C)=O)C2C1(C)C(OC(C)=O)C[C@H](O)C(C)(C)[C@H]1C(O)[C@@H]3OC(C)=O` (some centres not stated) showed a TGI (DU-145 prostate) of 33.2 µM, a TGI (BT-549 breast) of 13.5 µM and a TGI (UACC-62 melanoma) of 26.5 µM. For the same compound, the TGI (SNB-19 CNS) was 44.3 µM, the TGI (UACC-257 melanoma) was 24.5 µM and the TGI (OVCAR-5 ovarian) was 28.8 µM. It also gave a TGI (LOX IMVI melanoma) of 30.3 µM, a TGI (NCI-H226 lung) of 45 µM and a TGI (HS 578T breast) of 41.9 µM. It also gave a TGI (SNB-75 CNS) of 36.3 µM, a TGI (OVCAR-3 ovarian) of 19.1 µM and a TGI (MDA-MB-435) of 20.6 µM.
Work on `C[Si](C)(C)OC1c2[nH]c3ccccc3c2CN2C(=O)CCC12` (configuration not stated) yielded a TGI (DU-145 prostate) greater than 100 µM, a TGI (BT-549 breast) greater than 100 µM and a TGI (UACC-62 melanoma) greater than 100 µM. It also gave a TGI (SNB-19 CNS) greater than 100 µM, a TGI (UACC-257 melanoma) greater than 100 µM and a TGI (OVCAR-5 ovarian) greater than 100 µM. For the same compound, the TGI (LOX IMVI melanoma) was greater than 100 µM, the TGI (NCI-H226 lung) was greater than 100 µM and the TGI (HS 578T breast) was greater than 100 µM. The TGI (SNB-75 CNS) was greater than 100 µM, the TGI (OVCAR-3 ovarian) was greater than 100 µM and the TGI (MDA-MB-435) was greater than 100 µM.
`Cc1ccccc1N(C)S(=O)(=O)c1ccccc1[N+](=O)[O-]` was tested, and the TGI (DU-145 prostate) was greater than 100 µM, the TGI (BT-549 breast) was greater than 100 µM and the TGI (UACC-62 melanoma) was greater than 100 µM. For the same compound, the TGI (SNB-19 CNS) was greater than 100 µM, the TGI (UACC-257 melanoma) was greater than 100 µM and the TGI (OVCAR-5 ovarian) was greater than 100 µM. It also gave a TGI (LOX IMVI melanoma) greater than 100 µM, a TGI (NCI-H226 lung) greater than 100 µM and a TGI (HS 578T breast) greater than 100 µM. For the same compound, the TGI (SNB-75 CNS) was greater than 100 µM, the TGI (OVCAR-3 ovarian) was greater than 100 µM and the TGI (MDA-MB-435) was greater than 100 µM.
With `[N-]=[N+]=Nc1ccc2c(c1)Sc1ccccc1N2CCCCCl` the TGI (DU-145 prostate) was greater than 100 µM, the TGI (BT-549 breast) was greater than 100 µM and the TGI (UACC-62 melanoma) was greater than 100 µM. For the same compound, the TGI (SNB-19 CNS) was greater than 100 µM, the TGI (UACC-257 melanoma) was greater than 100 µM and the TGI (OVCAR-5 ovarian) was greater than 100 µM. For the same compound, the TGI (LOX IMVI melanoma) was greater than 100 µM, the TGI (NCI-H226 lung) was greater than 100 µM and the TGI (HS 578T breast) was greater than 100 µM. It also gave a TGI (SNB-75 CNS) greater than 100 µM, a TGI (OVCAR-3 ovarian) greater than 100 µM and a TGI (MDA-MB-435) greater than 100 µM.
`CCCCc1c2c(nc3c1CCC/C3=C\c1ccccc1)C(=O)C(CN(C)C)CC2` (configuration not stated) gave a TGI (DU-145 prostate) of 29.1 µM, a TGI (BT-549 breast) of 19.8 µM and a TGI (UACC-62 melanoma) of 48.4 µM. The TGI (SNB-19 CNS) was 32.6 µM, the TGI (UACC-257 melanoma) was 33.7 µM and the TGI (OVCAR-5 ovarian) was 33.8 µM. For the same compound, the TGI (LOX IMVI melanoma) was 30.9 µM, the TGI (NCI-H226 lung) was 51.6 µM and the TGI (HS 578T breast) was 70.8 µM. It also gave a TGI (SNB-75 CNS) of 27 µM, a TGI (OVCAR-3 ovarian) of 39.9 µM and a TGI (MDA-MB-435) of 37.2 µM.
`CCOC(=O)c1c(NC(=O)Nc2ccccc2)c(C(N)=O)c2n1CCCCC2` was tested, and the TGI (DU-145 prostate) was greater than 100 µM, the TGI (BT-549 breast) was greater than 100 µM and the TGI (UACC-62 melanoma) was greater than 100 µM. The TGI (SNB-19 CNS) was greater than 100 µM, the TGI (UACC-257 melanoma) was greater than 100 µM and the TGI (LOX IMVI melanoma) was greater than 100 µM. The TGI (NCI-H226 lung) was greater than 100 µM, the TGI (HS 578T breast) was greater than 100 µM and the TGI (SNB-75 CNS) was greater than 100 µM. The TGI (MDA-MB-435) was greater than 100 µM.
With `O=C(Cc1ccccc1)c1ccc2[nH]c(=O)oc2c1` the TGI (DU-145 prostate) was greater than 100 µM, the TGI (BT-549 breast) was greater than 100 µM and the TGI (UACC-62 melanoma) was greater than 100 µM. It also gave a TGI (UACC-257 melanoma) greater than 100 µM, a TGI (OVCAR-5 ovarian) greater than 100 µM and a TGI (LOX IMVI melanoma) greater than 100 µM. It also gave a TGI (NCI-H226 lung) of 63.2 µM, a TGI (HS 578T breast) of 22.9 µM and a TGI (SNB-75 CNS) of 33.4 µM. For the same compound, the TGI (OVCAR-3 ovarian) was greater than 100 µM and the TGI (MDA-MB-435) was greater than 100 µM.
In the case of `O=[N+]([O-])C(=C(N1CCOCC1)N1CCOCC1)/C(Cl)=C(\Cl)[N+](=O)[O-]`, the TGI (DU-145 prostate) was 18 µM, the TGI (BT-549 breast) was 13.3 µM and the TGI (UACC-62 melanoma) was 34.8 µM. For the same compound, the TGI (SNB-19 CNS) was greater than 65.6 µM, the TGI (UACC-257 melanoma) was 10.5 µM and the TGI (OVCAR-5 ovarian) was 31.4 µM. The TGI (LOX IMVI melanoma) was 5.19 µM, the TGI (NCI-H226 lung) was greater than 100 µM and the TGI (HS 578T breast) was 16.6 µM. The TGI (SNB-75 CNS) was 34.5 µM, the TGI (OVCAR-3 ovarian) was 13.5 µM and the TGI (MDA-MB-435) was 23.1 µM.
